Laboratory results published in patent US9493506B2 (Enanta Pharmaceuticals, Inc., priority 2010, dated 2016).

Tests used:
Assay type in all cases: cell-based, hepatitis C virus (genotype 1a-H77)
[1] = system: HCV replicon with a R155K mutation in a 1a-H77 background; assay: transient replicon assay, R155K mutation in 1a-H77 background; conditions: Hepatitis C virus, read-out: EC50 in a transient replicon assay with a R155K mutation in a 1a-H77 background
Procedure, shortened: (§1)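 Transient transfection of mutant replicon RNA (1a-H77 with NS2–NS5B, or 1b-N with NS3–NS5B plus E1202G/S2204I) by electroporation into IFN-cured Huh7 cells, plated at 7.5×10^3 cells per well in DMEM with 5% FBS. Serial compound dilutions added 4 h post-transfection (0.5% DMSO final).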

[2] = system: HCV replicon with a D168V mutation in a 1a-H77 background; assay: transient replicon assay, D168V mutation in 1a-H77 background; conditions: Hepatitis C virus, read-out: EC50 in a transient replicon assay with a D168V mutation in a 1a-H77 background
Procedure, shortened: as §1

[3] = system: HCV replicon with a D168E mutation in a 1a-H77 background; assay: transient replicon assay, D168E mutation in 1a-H77 background; conditions: Hepatitis C virus, read-out: EC50 in a transient replicon assay with a D168E mutation in a 1a-H77 background
Procedure, shortened: as §1

SMILES	EC50 [1]	EC50 [2]	EC50 [3]
CC(C)(C)OC(=O)N[C@H]1CCCCC/C=C\[C@@H]2C[C@@]2(C(=O)NS(=O)(=O)C2(C)CC2)NC(=O)[C@@H]2C[C@@H](Oc3nc4c(F)cccc4nc3C(F)(F)F)CN2C1=O [Example 114, tert-butyl (2R,6S,13aS,14aR,16aS,Z)-2-(8-fluoro-3-(trifluoromethyl)quinoxalin-2-yloxy)-14a-(1-methylcyclopropylsulfonylcarbamoyl)-5,16-dioxo-1,2,3,5,6,7,8,9,10,11,13a,14,14a,15,16,16a-hexadecahydrocyclopropa[e]pyrrolo[1,2-a][1,4]diazacyclopentadecin-6-ylcarbamate]	< 1 nM	50 to 250 nM	3 to 20 nM
Cc1cc(C(=O)N[C@H]2CCCCC/C=C\[C@@H]3C[C@@]3(C(=O)NS(=O)(=O)C3(C)CC3)NC(=O)[C@@H]3C[C@@H](Oc4nc5c(F)cccc5nc4C(F)(F)F)CN3C2=O)no1 [Example 115, N-((2R,6S,13aS,14aR,16aS,Z)-2-(8-fluoro-3-(trifluoromethyl)quinoxalin-2-yloxy)-14a-(1-methylcyclopropylsulfonylcarbamoyl)-5,16-dioxo-1,2,3,5,6,7,8,9,10,11,13a,14,14a,15,16,16a-hexadecahydrocyclopropa[e]pyrrolo[1,2-a][1,4]diazacyclopentadecin-6-yl)-5-methylisoxazole-3-carboxamide]	< 1 nM	< 25 nM	< 3 nM
CC(C)(C)OC(=O)N[C@H]1CCCCC/C=C\[C@@H]2C[C@@]2(C(=O)NS(=O)(=O)C2CC2)NC(=O)[C@@H]2C[C@@H](Oc3nc4cc(F)ccc4nc3C(C)(F)F)CN2C1=O [Example 116, tert-butyl (2R,6S,13aS,14aR,16aS,Z)-14a-(cyclopropylsulfonylcarbamoyl)-2-(3-(1,1-difluoroethyl)-7-fluoroquinoxalin-2-yloxy)-5,16-dioxo-1,2,3,5,6,7,8,9,10,11,13a,14,14a,15,16,16a-hexadecahydrocyclopropa[e]pyrrolo[1,2-a][1,4]diazacyclopentadecin-6-ylcarbamate]	< 1 nM	25 to 50 nM	3 to 20 nM
CC(C)(C)OC(=O)N[C@H]1CCCCC/C=C\[C@@H]2C[C@@]2(C(=O)NS(=O)(=O)C2(C)CC2)NC(=O)[C@@H]2C[C@@H](Oc3nc4cc(F)ccc4nc3C(C)(F)F)CN2C1=O [Example 118, tert-butyl (2R,6S,13aS,14aR,16aS,Z)-2-(3-(1,1-difluoroethyl)-7-fluoroquinoxalin-2-yloxy)-14a-(1-methylcyclopropylsulfonylcarbamoyl)-5,16-dioxo-1,2,3,5,6,7,8,9,10,11,13a,14,14a,15,16,16a-hexadecahydrocyclopropa[e]pyrrolo[1,2-a][1,4]diazacyclopentadecin-6-ylcarbamate]	1 to 10 nM	250 to 1000 nM	> 100 nM
Cc1onc(C(=O)N[C@H]2CCCCC/C=C\[C@@H]3C[C@@]3(C(=O)NS(=O)(=O)C3(C)CC3)NC(=O)[C@@H]3C[C@@H](Oc4nc5cc(F)ccc5nc4C(C)(F)F)CN3C2=O)c1C [Example 120, N-((2R,6S,13aS,14aR,16aS,Z)-2-(3-(1,1-difluoroethyl)-7-fluoroquinoxalin-2-yloxy)-14a-(1-methylcyclopropylsulfonylcarbamoyl)-5,16-dioxo-1,2,3,5,6,7,8,9,10,11,13a,14,14a,15,16,16a-hexadecahydrocyclopropa[e]pyrrolo[1,2-a][1,4]diazacyclopentadecin-6-yl)-4,5-methylisoxazole-3-carboxamide]	< 1 nM	< 25 nM	< 3 nM
CCc1nc2ccc(F)cc2nc1O[C@@H]1C[C@H]2C(=O)N[C@]3(C(=O)NS(=O)(=O)C4CC4)C[C@H]3/C=C\CCCCC[C@H](NC(=O)OC(C)(C)C)C(=O)N2C1 [Example 121, tert-butyl (2R,6S,13aS,14aR,16aS,Z)-14a-(cyclopropylsulfonylcarbamoyl)-2-(3-ethyl-7-fluoroquinoxalin-2-yloxy)-5,16-dioxo-1,2,3,5,6,7,8,9,10,11,13a,14,14a,15,16,16a-hexadecahydrocyclopropa[e]pyrrolo[1,2-a][1,4]diazacyclopentadecin-6-ylcarbamate]	1 to 10 nM	50 to 250 nM	3 to 20 nM
CCc1nc2ccc(F)cc2nc1O[C@@H]1C[C@H]2C(=O)N[C@]3(C(=O)NS(=O)(=O)C4CC4)C[C@H]3/C=C\CCCCC[C@H](NC(=O)c3ccon3)C(=O)N2C1 [Example 122, N-((2R,6S,13aS,14aR,16aS,Z)-14a-(cyclopropylsulfonylcarbamoyl)-2-(3-ethyl-7-fluoroquinoxalin-2-yloxy)-5,16-dioxo-1,2,3,5,6,7,8,9,10,11,13a,14,14a,15,16,16a-hexadecahydrocyclopropa[e]pyrrolo[1,2-a][1,4]diazacyclopentadecin-6-yl)isoxazole-3-carboxamide]	1 to 10 nM	250 to 1000 nM	20 to 50 nM
CCc1nc2ccc(F)cc2nc1O[C@@H]1C[C@H]2C(=O)N[C@]3(C(=O)NS(=O)(=O)C4CC4)C[C@H]3/C=C\CCCCC[C@H](NC(=O)c3noc(C)c3C)C(=O)N2C1 [Example 123, N-((2R,6S,13aS,14aR,16aS,Z)-14a-(cyclopropylsulfonylcarbamoyl)-2-(3-ethyl-7-fluoroquinoxalin-2-yloxy)-5,16-dioxo-1,2,3,5,6,7,8,9,10,11,13a,14,14a,15,16,16a-hexadecahydrocyclopropa[e]pyrrolo[1,2-a][1,4]diazacyclopentadecin-6-yl)-4,5-dimethylisoxazole-3-carboxamide]	1 to 10 nM	50 to 250 nM	3 to 20 nM
CCc1nc2ccc(F)cc2nc1O[C@@H]1C[C@H]2C(=O)N[C@]3(C(=O)NS(=O)(=O)C4CC4)C[C@H]3/C=C\CCCCC[C@H](NC(=O)c3cc(C)on3)C(=O)N2C1 [Example 124, N-((2R,6S,13aS,14aR,16aS,Z)-14a-(cyclopropylsulfonylcarbamoyl)-2-(3-ethyl-7-fluoroquinoxalin-2-yloxy)-5,16-dioxo-1,2,3,5,6,7,8,9,10,11,13a,14,14a,15,16,16a-hexadecahydrocyclopropa[e]pyrrolo[1,2-a][1,4]diazacyclopentadecin-6-yl)-5-methylisoxazole-3-carboxamide]	1 to 10 nM	50 to 250 nM	20 to 50 nM
CCc1nc2ccc(F)cc2nc1O[C@@H]1C[C@H]2C(=O)N[C@]3(C(=O)NS(=O)(=O)C4(C)CC4)C[C@H]3/C=C\CCCCC[C@H](NC(=O)OC(C)(C)C)C(=O)N2C1 [Example 125, tert-butyl (2R,6S,13aS,14aR,16aS,Z)-2-(3-ethyl-7-fluoroquinoxalin-2-yloxy)-14a-(1-methylcyclopropylsulfonylcarbamoyl)-5,16-dioxo-1,2,3,5,6,7,8,9,10,11,13a,14,14a,15,16,16a-hexadecahydrocyclopropa[e]pyrrolo[1,2-a][1,4]diazacyclopentadecin-6-ylcarbamate]	< 1 nM	25 to 50 nM	3 to 20 nM
CCc1nc2ccc(F)cc2nc1O[C@@H]1C[C@H]2C(=O)N[C@]3(C(=O)NS(=O)(=O)C4(C)CC4)C[C@H]3/C=C\CCCCC[C@H](NC(=O)c3cc(C4CC4)on3)C(=O)N2C1 [Example 151, 5-cyclopropyl-N-((2R,6S,13aS,14aR,16aS,Z)-2-(3-ethyl-7-fluoroquinoxalin-2-yloxy)-14a-(1-methylcyclopropylsulfonylcarbamoyl)-5,16-dioxo-1,2,3,5,6,7,8,9,10,11,13a,14,14a,15,16,16a-hexadecahydrocyclopropa[e]pyrrolo[1,2-a][1,4]diazacyclopentadecin-6-yl)isoxazole-3-carboxamide]	1 to 10 nM	< 25 nM	3 to 20 nM
CCc1nc2cccc(F)c2nc1O[C@@H]1C[C@H]2C(=O)N[C@]3(C(=O)NS(=O)(=O)C4CC4)C[C@H]3/C=C\CCCCC[C@H](NC(=O)OC(C)(C)C)C(=O)N2C1 [Example 160, tert-butyl (2R,6S,13aS,14aR,16aS,Z)-14a-(cyclopropylsulfonylcarbamoyl)-2-(3-ethyl-8-fluoroquinoxalin-2-yloxy)-5,16-dioxo-1,2,3,5,6,7,8,9,10,11,13a,14,14a,15,16,16a-hexadecahydrocyclopropa[e]pyrrolo[1,2-a][1,4]diazacyclopentadecin-6-ylcarbamate]	1 to 10 nM	50 to 250 nM	20 to 50 nM
CCc1nc2cccc(F)c2nc1O[C@@H]1C[C@H]2C(=O)N[C@]3(C(=O)NS(=O)(=O)C4CC4)C[C@H]3/C=C\CCCCC[C@H](NC(=O)c3ccon3)C(=O)N2C1 [Example 161, N-((2R,6S,13aS,14aR,16aS,Z)-14a-(cyclopropylsulfonylcarbamoyl)-2-(3-ethyl-8-fluoroquinoxalin-2-yloxy)-5,16-dioxo-1,2,3,5,6,7,8,9,10,11,13a,14,14a,15,16,16a-hexadecahydrocyclopropa[e]pyrrolo[1,2-a][1,4]diazacyclopentadecin-6-yl)isoxazole-3-carboxamide]	1 to 10 nM	50 to 250 nM	3 to 20 nM
CCc1nc2cccc(F)c2nc1O[C@@H]1C[C@H]2C(=O)N[C@]3(C(=O)NS(=O)(=O)C4CC4)C[C@H]3/C=C\CCCCC[C@H](NC(=O)c3cc(C)on3)C(=O)N2C1 [Example 162, N-((2R,6S,13aS,14aR,16aS,Z)-14a-(cyclopropylsulfonylcarbamoyl)-2-(3-ethyl-8-fluoroquinoxalin-2-yloxy)-5,16-dioxo-1,2,3,5,6,7,8,9,10,11,13a,14,14a,15,16,16a-hexadecahydrocyclopropa[e]pyrrolo[1,2-a][1,4]diazacyclopentadecin-6-yl)-5-methylisoxazole-3-carboxamide]	1 to 10 nM	50 to 250 nM	3 to 20 nM
